The record followed here is BindingDB's records for doi:10.1016/j.chembiol.2011.05.008 (Stanford University, 2011).

In general, IC50 refers to the midpoint of a concentration-inhibition curve. Low values mean higher potency, high ones lower potency.

Test in all cases: Fluorogenic Assay
Holding throughout (conditions): pH 8; 37 °C

The target in assay [1] is T1, Sentrin-specific protease 1 (Homo sapiens, UniProt Q9P0U3).
T1 sequence (Q9P0U3 whole entry): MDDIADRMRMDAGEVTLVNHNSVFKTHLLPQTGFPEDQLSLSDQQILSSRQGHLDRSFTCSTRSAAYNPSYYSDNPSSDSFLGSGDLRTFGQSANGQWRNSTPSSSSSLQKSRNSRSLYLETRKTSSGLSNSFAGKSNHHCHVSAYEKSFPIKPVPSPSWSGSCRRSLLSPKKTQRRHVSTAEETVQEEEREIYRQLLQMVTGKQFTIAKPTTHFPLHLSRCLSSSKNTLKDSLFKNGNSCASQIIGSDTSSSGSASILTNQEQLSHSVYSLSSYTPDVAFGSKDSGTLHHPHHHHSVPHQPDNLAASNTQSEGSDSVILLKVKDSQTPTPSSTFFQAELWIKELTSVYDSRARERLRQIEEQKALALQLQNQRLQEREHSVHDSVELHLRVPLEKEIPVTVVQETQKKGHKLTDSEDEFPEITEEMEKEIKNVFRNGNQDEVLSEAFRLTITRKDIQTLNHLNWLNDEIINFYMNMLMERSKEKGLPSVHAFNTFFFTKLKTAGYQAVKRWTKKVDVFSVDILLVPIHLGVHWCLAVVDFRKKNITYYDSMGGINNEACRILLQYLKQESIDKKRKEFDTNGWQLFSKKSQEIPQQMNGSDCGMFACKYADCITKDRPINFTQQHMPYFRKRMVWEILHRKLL
As to the method: The fluorogenic substrate library screen was performed with hSENP1 in low salt tris buffer at final concentration of 2uM. Fluorophore release (AFC) production was measured using fluorescence plate reader at 405nm/510nm for 10-60min.

Assay [2] deals with T2, Sentrin-specific protease 6 (Homo sapiens, UniProt Q9GZR1).
T2 sequence (Q9GZR1 whole entry): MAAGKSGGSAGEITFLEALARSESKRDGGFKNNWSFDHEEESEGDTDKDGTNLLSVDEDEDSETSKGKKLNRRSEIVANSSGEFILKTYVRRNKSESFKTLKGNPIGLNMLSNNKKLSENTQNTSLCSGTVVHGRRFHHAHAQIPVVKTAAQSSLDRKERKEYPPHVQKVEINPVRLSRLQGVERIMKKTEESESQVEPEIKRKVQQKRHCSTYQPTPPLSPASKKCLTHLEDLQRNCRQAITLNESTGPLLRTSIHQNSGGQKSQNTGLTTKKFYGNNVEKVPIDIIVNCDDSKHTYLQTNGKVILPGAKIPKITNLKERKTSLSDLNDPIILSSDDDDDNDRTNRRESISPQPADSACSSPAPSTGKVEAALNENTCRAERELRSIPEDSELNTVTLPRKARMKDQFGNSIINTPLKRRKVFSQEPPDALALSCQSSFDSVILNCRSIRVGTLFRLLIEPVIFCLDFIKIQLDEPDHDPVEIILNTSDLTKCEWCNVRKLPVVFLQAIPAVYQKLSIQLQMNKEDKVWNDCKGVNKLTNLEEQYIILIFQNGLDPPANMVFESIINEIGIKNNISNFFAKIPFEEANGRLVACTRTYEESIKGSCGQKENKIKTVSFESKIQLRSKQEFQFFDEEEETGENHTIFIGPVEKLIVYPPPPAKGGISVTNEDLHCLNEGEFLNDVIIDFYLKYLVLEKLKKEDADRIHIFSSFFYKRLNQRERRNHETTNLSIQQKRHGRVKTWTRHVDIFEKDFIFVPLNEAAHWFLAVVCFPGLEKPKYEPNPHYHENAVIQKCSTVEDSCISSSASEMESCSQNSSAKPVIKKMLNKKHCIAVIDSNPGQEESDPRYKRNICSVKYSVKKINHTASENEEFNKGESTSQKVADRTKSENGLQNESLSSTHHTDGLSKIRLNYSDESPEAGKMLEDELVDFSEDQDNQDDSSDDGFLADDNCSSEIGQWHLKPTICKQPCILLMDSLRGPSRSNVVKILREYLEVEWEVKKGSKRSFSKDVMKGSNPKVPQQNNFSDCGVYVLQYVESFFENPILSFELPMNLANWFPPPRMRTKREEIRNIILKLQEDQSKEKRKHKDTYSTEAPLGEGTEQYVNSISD

In assay [3] the target is T3, Sentrin-specific protease 7 (Homo sapiens, UniProt Q9BQF6).
T3 sequence (Q9BQF6 whole entry): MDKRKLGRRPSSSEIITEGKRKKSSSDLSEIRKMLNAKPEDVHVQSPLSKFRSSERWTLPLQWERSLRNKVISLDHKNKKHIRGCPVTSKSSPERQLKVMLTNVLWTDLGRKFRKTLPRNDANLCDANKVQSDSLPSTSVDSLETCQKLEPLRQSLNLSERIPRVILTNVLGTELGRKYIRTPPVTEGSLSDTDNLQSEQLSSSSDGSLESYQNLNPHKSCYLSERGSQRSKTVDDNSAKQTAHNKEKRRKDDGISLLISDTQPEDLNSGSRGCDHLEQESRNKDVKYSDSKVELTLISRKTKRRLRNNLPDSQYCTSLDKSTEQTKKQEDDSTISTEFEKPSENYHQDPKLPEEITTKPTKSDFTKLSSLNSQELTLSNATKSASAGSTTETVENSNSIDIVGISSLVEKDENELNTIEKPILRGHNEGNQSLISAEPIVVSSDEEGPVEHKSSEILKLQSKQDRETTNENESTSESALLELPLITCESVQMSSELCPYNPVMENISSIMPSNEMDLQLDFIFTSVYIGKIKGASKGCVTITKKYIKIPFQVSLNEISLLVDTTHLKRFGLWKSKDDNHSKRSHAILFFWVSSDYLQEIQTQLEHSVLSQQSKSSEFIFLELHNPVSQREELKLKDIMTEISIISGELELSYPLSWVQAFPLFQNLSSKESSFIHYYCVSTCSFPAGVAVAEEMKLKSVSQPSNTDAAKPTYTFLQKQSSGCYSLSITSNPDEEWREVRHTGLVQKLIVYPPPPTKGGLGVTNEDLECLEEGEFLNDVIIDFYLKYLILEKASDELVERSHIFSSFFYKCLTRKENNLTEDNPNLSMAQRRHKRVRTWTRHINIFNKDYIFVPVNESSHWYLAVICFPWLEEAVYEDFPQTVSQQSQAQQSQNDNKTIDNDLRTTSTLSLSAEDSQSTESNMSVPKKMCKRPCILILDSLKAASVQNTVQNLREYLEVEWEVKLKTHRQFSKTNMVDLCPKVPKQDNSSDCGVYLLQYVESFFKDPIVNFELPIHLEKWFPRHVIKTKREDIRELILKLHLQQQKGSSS

Assay [4] deals with T4, Sentrin-specific protease 2 (Homo sapiens, UniProt Q9HC62).
T4 sequence (Q9HC62 whole entry): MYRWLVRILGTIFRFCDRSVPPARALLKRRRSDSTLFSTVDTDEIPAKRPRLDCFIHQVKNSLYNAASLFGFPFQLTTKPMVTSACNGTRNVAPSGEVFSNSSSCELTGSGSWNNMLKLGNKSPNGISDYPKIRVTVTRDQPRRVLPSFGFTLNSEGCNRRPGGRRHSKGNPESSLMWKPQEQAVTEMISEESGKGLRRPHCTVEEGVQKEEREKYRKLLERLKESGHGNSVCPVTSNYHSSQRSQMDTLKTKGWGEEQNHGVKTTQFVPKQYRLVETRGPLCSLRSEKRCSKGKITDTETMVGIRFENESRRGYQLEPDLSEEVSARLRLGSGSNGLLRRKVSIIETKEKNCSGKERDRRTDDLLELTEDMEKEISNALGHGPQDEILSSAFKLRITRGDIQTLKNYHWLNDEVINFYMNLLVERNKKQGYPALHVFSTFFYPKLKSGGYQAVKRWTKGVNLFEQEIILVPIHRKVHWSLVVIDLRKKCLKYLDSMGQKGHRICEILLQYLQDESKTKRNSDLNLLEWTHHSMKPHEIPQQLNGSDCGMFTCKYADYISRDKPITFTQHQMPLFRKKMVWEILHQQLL

*1 amine or outer side, *2 acyl side, *3 side chain or, on linkers, in order; H or OH if unused. Where a SMILES comes first, the peptide text is derived from it. [ ]: non-standard residue; d: D form. The star is where a group is joined. ξ: configuration not given here. ξThr(3S) = C[C@H](O[*:3])C(N[*:1])C(=O)[*:2]; X2 = O=C(CN*)COC(=O)c1c2ccccc2cc2ccccc12; X1 = O=C(Cc1ccc(O)c([N+](=O)[O-])c1)* A value given as a limit tells only on which side of the number the result lay.

For `O=C(O)c1cccc(C(=O)NCc2ccc(C(=O)NNC(=O)[C@H]3O[C@@H]3C(=O)N(Cc3cccc4ccccc34)Cc3cccc4ccccc34)cc2)c1` [VEA-260], the IC50 in assay [1] is 7.1 µM; in assay [2] it was above 100 µM; in assay [3], 36.5 µM; in assay [4], 3.7 µM.
For the compound `O=C(O)CN(NC(=O)c1ccc(CNC(=O)c2cccc(C(=O)O)c2)cc1)C(=O)[C@H]1O[C@@H]1C(=O)N(Cc1cccc2ccccc12)Cc1cccc2ccccc12` [JCP-666], the IC50 in assay [1] is 13.8 µM; in assay [2], above 100 µM; in assay [3], above 70 µM; in assay [4], 7 µM.
With `NC(=O)[C@H](CC(=O)O)NC(=O)c1ccc(C(=O)NNC(=O)[C@H]2O[C@@H]2C(=O)N(Cc2cccc3ccccc23)Cc2cccc3ccccc23)cc1` [VEA-422], the IC50 in assay [1] was 22.4 µM; in assay [2], above 100 µM; in assay [3], above 70 µM; in assay [4] it was 10.4 µM.
For the compound `C[C@H](O)C(NC(=O)[C@H](CCC(N)=O)NC(=O)[C@H](CCC(N)=O)NC(=O)Cc1ccc(O)c([N+](=O)[O-])c1)C(=O)NCC(=O)NCC(=O)COC(=O)c1c2ccccc2cc2ccccc12` (stereo partly drawn) [VEA-500] (X1-QQ[ξThr(3S)]G-X2), the IC50 was above 20 µM in assay [1], above 40 µM in assay [2], above 100 µM in assay [3] and 0.86 µM in assay [4].
The matching figures for `O=C(CNC(=O)c1ccc(CNC(=O)c2cccc(C(=O)O)c2)cc1)COC(=O)c1c2ccccc2cc2ccccc12` [VEA-401]: 23.1 µM, above 40 µM, above 20 µM and 13.4 µM.
With `C[C@H](O)C(NC(=O)[C@H](CCC(N)=O)NC(=O)Cc1ccc(O)c([N+](=O)[O-])c1)C(=O)NCC(=O)NCC(=O)COC(=O)c1c2ccccc2cc2ccccc12` (some centres not stated) [VEA-499], the IC50 in assay [1] was 3.6 µM; in assay [2], above 60 µM; in assay [3], above 100 µM; in assay [4], 0.25 µM.
For `CC(C)C[C@H](NC(=O)Cc1ccc(O)c([N+](=O)[O-])c1)C(=O)N[C@@H](CCCNC(=N)N)C(=O)NCC(=O)NCC(=O)COC(=O)c1c2ccccc2cc2ccccc12` [VEA-561], the IC50 was above 25 µM in assay [1], 4.2 µM in assay [2], 4.3 µM in assay [3] and 5.7 µM in assay [4].
In the case of `NC(=O)CNC(=O)c1ccc(C(=O)NNC(=O)[C@H]2O[C@@H]2C(=O)N(Cc2cccc3ccccc23)Cc2cccc3ccccc23)cc1` [VEA-417], the IC50 is 32.5 µM in assay [1], above 100 µM in assay [2], above 70 µM in assay [3] and 13.1 µM in assay [4].
